Structures can show the parent of a compound that is named as a salt.
Columns and labels:
Stress Induced Ulcer = experiment: Effect on stress induced ulcer (water-immersion restraint stress, method of Takagi et al.); assay type: in vivo, Male rats of Sprague Dawley (SD) strain; conditions: oral, 100 mg/kg in 1% CMC, given 15 min before 18 h water immersion at 24°C; for Ulcer inhibition rate (%): relative to group without test compound; for Ulcer index (mm): total major axis of ulcers per animal, control 94.4 ± 25.1
Procedure: Test Method 1 (Effect on Stress Induced Ulcer) The method of Takagi et al. (Jap. J. Pharmacol., 18, 9 ([…])) was followed. Male rats of Sprague Dawley (SD) strain each weighing from 180 to 200 g (8 weeks old and 6 to 8 rats in one group) were fasted for 24 hours, followed by oral administration of the above test compounds which had been suspended in 1% CMC aqueous solution. Fifteen minutes later, the animals were placed in a stress cage which was then immersed in a water bath at 24°C at the depth of the […] of the animals. After being immersed for 18 hours, the animals were sacrificed under etherization to remove the stomachs. Each of the stomachs was injected with 12 ml of 1% formaldehyde solution and then immersed in a 1% formaldehyde solution for 15 minutes. The stomach was incised along its greater curvature and examined for the gastric lesions under a stereomicroscope for the major axis (mm) of each ulcer that had developed on the gastric mucous membrane. The total major axis (mm) per animal was taken as the ulcer index of the animal. The ulcer inhibition rate was calculated from the following equation. The ED50 value was obtained from the dose-ulcer inhibition rate curve. Ulcer inhibition rate (%) = (1 - ? ) x 100 (wherein l is the ulcer index of a group without the test compounds administered, and m is the ulcer index of a group having such compounds administered).

Male mice of ddY strain = experiment: Acute toxicity - minimum lethal dose (MLD); assay type: in vivo; conditions: oral administration in 1% CMC, fasted overnight, observation over 7 days
Excerpt: Test Method 2 (Acute Toxicity - Minimum Lethal Dose (MLD))
Male mice of ddY strain each weighing from 20 to 22 g (4 weeks old and 5 mice in one group) were fasted overnight, followed by oral administration of the test compounds which had been suspended in 1% CMC aqueous solution. Observation was made over 7 days to determine the minimum lethal dose (MLD).

SMILES | Ulcer inhibition rate (%) (Stress Induced Ulcer) | Ulcer index (mm) (Stress Induced Ulcer) | minimum lethal dose (MLD) (Male mice of ddY strain)
N=C(N)NC[C@H]1CC[C@H](C(=O)Nc2ccccc2)CC1 [E, N-(phenyl)-trans-4-guanidinomethyl-cyclohexanecarboximide hydrochloride, reference compound] | 35.0 | 61.4 ± 14.0 | ≤ 1,000 mg/kg
COc1ccccc1NC(=O)c1ccc(CNC(=N)N)cc1.Cl [Compound D, N-(2ʹ-methoxyphenyl)-4-guanidinomethylbenzamide hydrochloride] | 74.8 | 23.8 ± 14.9 | 
Cc1ccc(NC(=O)c2ccc(CNC(=N)N)cc2)cc1.Cl [A, N-(4ʹ-methylphenyl)-4-guanidinomethylbenzamide hydrochloride] | 90.3 | 9.2 ± 3.4 | 
Cl.N=C(N)NCc1ccc(C(=O)Nc2ccc(Cl)cc2)cc1 [B, N-(4ʹ-chlorophenyl)-4-guanidinomethylbenzamide hydrochloride] | 80.5 | 18.4 ± 8.8 | 
CCOC(=O)c1ccccc1NC(=O)c1ccc(CNC(=N)N)cc1.Cl [C, N-(2ʹ-ethoxycarbonylphenyl)-4-guanidinomethylbenzamide hydrochloride] | 84.1 | 15.0 ± 14.7 | 

Reference: patent EP0268267A2, “Guanidinomethylbenzoic acid derivatives, compositions containing the same, processes for preparing the same, and the use of the same in the manufacture of medicaments of therapeutic value” (NIPPON HYPOX LABORATORIES INCORPORATED, priority 1986, dated 1988)
